Experimental data as given in ChEMBL document CHEMBL5463724, “Data for DCP probe VZ185” (2023).
Calls of active or inactive are those of the source.

Key:
Assay type in all cases: functional, cell-based
EOL1 = test: Cell viability (EOL-1 cells) (CellTiterGlo); conditions: Homo sapiens
A204 = test: Cell viability (A204 cells) (CellTiterGlo); conditions: Homo sapiens
[1] = target: T1, Bromodomain-containing protein 7 (Homo sapiens, UniProt Q9NPI1); test: Degradation of BRD7 in RI-1 cells (8 h) (Western Blot degradation assay)
T1 sequence (Q9NPI1 whole entry): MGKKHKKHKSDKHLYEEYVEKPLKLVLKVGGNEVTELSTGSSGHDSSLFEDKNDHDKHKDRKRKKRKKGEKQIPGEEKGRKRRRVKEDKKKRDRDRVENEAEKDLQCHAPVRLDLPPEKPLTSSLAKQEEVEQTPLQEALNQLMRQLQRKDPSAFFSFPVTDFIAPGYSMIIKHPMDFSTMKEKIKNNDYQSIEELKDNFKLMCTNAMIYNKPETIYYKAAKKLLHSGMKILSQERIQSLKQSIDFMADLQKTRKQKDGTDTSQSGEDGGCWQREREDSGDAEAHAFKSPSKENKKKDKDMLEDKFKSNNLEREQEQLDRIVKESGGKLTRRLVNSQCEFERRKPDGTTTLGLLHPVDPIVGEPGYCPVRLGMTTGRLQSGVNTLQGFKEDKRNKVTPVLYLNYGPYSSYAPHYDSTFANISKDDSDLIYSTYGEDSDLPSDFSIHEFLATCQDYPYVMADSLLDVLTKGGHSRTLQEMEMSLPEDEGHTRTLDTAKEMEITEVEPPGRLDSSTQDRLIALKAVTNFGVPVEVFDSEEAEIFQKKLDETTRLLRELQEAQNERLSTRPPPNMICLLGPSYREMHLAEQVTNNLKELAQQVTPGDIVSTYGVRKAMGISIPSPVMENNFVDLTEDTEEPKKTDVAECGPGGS

COc1cc(-c2cn(C)c(=O)c3cnccc23)cc(OC)c1CN1CCN(CCCCCOc2cc(-c3scnc3C)ccc2CNC(=O)[C@@H]2C[C@@H](O)CN2C(=O)[C@@H](NC(=O)C2(F)CC2)C(C)(C)C)CC1
active: EC50 (EOL1) 3.4 nM | EC50 (A204) 39.8 nM | DC50 [1] 4.5 nM
